Patent publication US20200129531A1, “USE OF WITHANIA SOMNIFERA EXTRACT TO PROTECT AGAINST AIR POLLUTION RELATED DISEASES” (DSM IP Assets B.V., priority 2017, published 2020)

Legend:
MCP-1 = MCP-1 secretion of A549 cells treated with Diesel Particulate Matter; assay type: cell-based, human; conditions: for effect on PM-induced MCP-1 secretion (in words): A549; for MCP-1 / MCP-1 % of PM + DMSO: Table 9, 10 μg/ml + PM 100 μg/ml, A549, 24 h
Text: The human bronchial epithelial cell line BEAS-2B was from ATCC (American Type Culture Collection, Manassas, Va.) and cultured in Bronchial Epithelial cell Growth Medium (BEGM, Lonza, Wakersville, Md.) in CellBIND® surface plastic flasks (Corning Inc., Corning, N.Y.). The adenocarcinomic human alveolar basal epithelial A549 cell line was obtained from ATCC and cultured in Kaighn's Modification of Ham's F-12 Medium (F-12K medium) (Life Technologies, USA), supplemented with 10% FBS (Sigma, Saint-Louis, Mo.). These cells were cultured at 37° C. in a humidified atmosphere containing 5% CO2. BEAS-2B cells were seeded in 12-well CellBIND® surface culture plates (Corning Inc.) at 3 to 4×10^5 cells per well. A549 cells were seeded in 12-well plates at 2×10^5 cells per well. […] This dilution was twofold further diluted for the assay. After 24 h, cells were treated with the diluted Diesel Particulate Matter at 100 μg/ml and in the presence of different concentrations of Withania somnifera extracts, other plant extracts, fractions and compounds as indicated. The final DSMO concentrations were 0.175%. Untreated cells or cells treated with 0.175% DMSO were used as controls. After 24 h, cell supernatants were collected.

Nrf2 = experiment: Luciferase reporter assay using H411E-ARE8L cells (Nrf2 activation); conditions: Conc. final 22.73 μg/ml; for Nrf-2 activity, Normalized data: R-sulforaphane set to 1.0, DMSO 0
Method: Luciferase Reporter Assay Using H411E-ARE8L Cells:
The medium for H411E-ARE8L cells was Dulbecco's Modified Eagle Medium (DMEM) high glucose containing heat inactivated 10% fetal bovine Serum (FBS). The media was exchanged every two to three-days. The DMEM assay medium used charcoal treated FBS (DMEMct). The transactivation assay was performed in 96 well plates. The plates were seeded with approximately 40′000 cells per well in 100 μl DMEMct and incubated over night at 37° C. Then the test compounds were diluted in DMEDct and given to the cells as described below. The cells were incubated for at least further 16 h at 37° C. and 5% CO2. Cells were equilibrated to room temperature. Lysis of the cells was done by adding 100 μL lysis solution, Steady-Glo© luciferase buffer according to the manufacturer (Promega) containing 0.5 mM DTT per well and incubated for 10 min at room temperature with gentle shaking. The luminescence was measured within 2 hours after incubation on a luminometer (Mithras, Berthold Technologies).
The negative control were cells in 0.5% DMSO.
All extracts, fractions and pure compounds were tested for concentrations that induce toxicity. Non-toxic concentrations were then selected for treating cells as describes in the methods section.

IL-6 [1] = experiment: IL-6 secretion of BEAS-2B cells treated with Diesel Particulate Matter; assay type: cell-based, human; conditions: Table 3, 10 μg/ml + PM 100 μg/ml, 24 h
Text: (§1) The human bronchial epithelial cell line BEAS-2B was from ATCC (American Type Culture Collection, Manassas, Va.) and cultured in Bronchial Epithelial cell Growth Medium (BEGM, Lonza, Wakersville, Md.) in CellBIND® surface plastic flasks (Corning Inc., Corning, N.Y.). The adenocarcinomic human alveolar basal epithelial A549 cell line was obtained from ATCC and cultured in Kaighn's Modification of Ham's F-12 Medium (F-12K medium) (Life Technologies, USA), supplemented with 10% FBS (Sigma, Saint-Louis, Mo.). These cells were cultured at 37° C. in a humidified atmosphere containing 5% CO2.
(§2) BEAS-2B cells were seeded in 12-well CellBIND® surface culture plates (Corning Inc.) at 3 to 4×10^5 cells per well. A549 cells were seeded in 12-well plates at 2×10^5 cells per well.
(§3) Diesel Particulate Matter (Standard Reference Material SRM 1650b, National Institute of Standards & Technology, NIST, Gaithersburg, Md.) at 80 mg/ml DMSO (100%) were sonicated for 5 min and thereafter diluted 400 fold in medium. This dilution was twofold further diluted for the assay.
(§4) After 24 h, cells were treated with the diluted Diesel Particulate Matter at 100 μg/ml and in the presence of different concentrations of Withania somnifera extracts, other plant extracts, fractions and compounds as indicated. The final DSMO concentrations were 0.175%.
(§5) Untreated cells or cells treated with 0.175% DMSO were used as controls. After 24 h, cell supernatants were collected.
(§6) The concentrations of IL-6 and IL-8 in the supernatants were determined by Luminex kits (BIO-RAD Laboratories, Hercules, Calif.) and used in the LiquiChip Workstation IS 200 (Qiagen, Hilden, Germany). The data were evaluated with the LiquiChip Analyser software (Qiagen).

PGE2 = PGE2 secretion of BEAS-2B cells treated with Diesel Particulate Matter; assay type: cell-based, human; conditions: for PGE2 / PGE2 % of PM + DMSO: Table 10, 10 μg/ml + PM 100 μg/ml, BEAS-2B, 24 h
Text: as §1, §2, §3, §4, §5
Secreted PGE2 was determined by Enzyme Immuno Assay (EIA) (Cayman Chemicals, Ann Harbor, […].).

IL-6 [2] = experiment: IL-6 secretion of A549 cells treated with Diesel Particulate Matter; assay type: cell-based, human; conditions: for effect on PM-induced IL-6 secretion (in words): A549; for IL-6 / IL-6 % of PM + DMSO: Table 5, 10 μg/ml + PM 100 μg/ml, A549, 24 h
Text: as §1, §2, §3, §4, §5, §6

IL-8 = IL-8 secretion of A549 cells treated with Diesel Particulate Matter; assay type: cell-based, human; conditions: for effect on IL-8 secretion (in words): A549, PM-induced; for IL-8 / IL-8 % of PM + DMSO: Table 7, 10 μg/ml + PM 100 μg/ml, A549, 24 h
Text: as §1, §2, §3, §4, §5, §6

Compound	effect on PM-induced MCP-1 secretion (in words) (MCP-1)	MCP-1 (MCP-1)	MCP-1 % of PM + DMSO (MCP-1)	Nrf-2 activity, Average (Nrf2)	Nrf-2 activity, Normalized data (Nrf2)	IL-6 (IL-6 [1])	IL-6 % of PM + DMSO (IL-6 [1])	effect on PGE2 secretion compared to PM with DMSO (in words) (PGE2; PM-treated BEAS-2B)	PGE2 (PGE2)	PGE2 % of PM + DMSO (PGE2)	effect on PM-induced IL-6 secretion (in words) (IL-6 [2])	IL-6 (IL-6 [2])	IL-6 % of PM + DMSO (IL-6 [2])	effect on IL-8 secretion (in words) (IL-8)	IL-8 (IL-8)	IL-8 % of PM + DMSO (IL-8)
12-deoxywithastramonolide	significant decrease	646.3 pg/mL	74%	33869 relative units of luciferase fluorescence	1.1701	51.9 pg/mL	207%	significant decrease	28.3 pg/mL	74%	decrease	9.5 pg/mL	75%	significant inhibition	208.3 pg/mL	69%
CC1=C(C)C(=O)O[C@@H]([C@](C)(O)[C@H]2CC[C@H]3[C@@H]4[C@@H]5O[C@@H]5[C@@]5(O)CC=CC(=O)[C@]5(C)[C@H]4CC[C@]23C)C1 [Withanolide A, withanolide A]	low, but non-significant decrease	790.7 pg/mL	91%	4677 relative units of luciferase fluorescence	0.0629	32.8 pg/mL	131%	–	34.7 pg/mL	91%	decrease	15.2 pg/mL	120%	no effect	313.7 pg/mL	103%
